In paper PMC10788915, “Fragment Merging, Growing, and Linking Identify New Trypanothione Reductase Inhibitors for Leishmaniasis” (Journal of Medicinal Chemistry, 2024):
Where two headings read alike, the source gives them in different places.

Tests used:
[1] = target: T1, Leishmania infantum TR (LiTR) (Leishmania infantum, UniProt A4HSF7); test: LiTR enzymatic inhibition assay (NADPH oxidation at 340 nm); assay type: biochemical; conditions: for IC50: 50 nM LiTR, 150 μM trypanothione, 100 μM NADPH, 25 °C; for gain in LiTR IC50 with respect to 5: compared to compound 5 (IC50 54.6 μM); for remaining activity at 10 µM: compound at 10 μM, mean ± SD, n = 3, read-out: LiTR residual activity %
T1 construct: The TbTR and LiTR genes were subcloned in a pET28b vector; 6-His (cleaved yes); made in house; host or cells: E. coli BL21(DE3), pET28b
Description: (§1) Enzymatic inhibition assays were performed in 50 mM HEPES pH 7.4, 40 mM NaCl at 25 °C using a JASCO V650 spectrophotometer equipped with a JASCO EHC 716 Peltier element to ensure controlled temperature. The first experiment was carried out using 50 nM LiTR, 10 or 100 μM compound to be tested, 150 μM trypanothione (trypanothione disulfide purchased from Bachem), and 100 μM NADPH (tetrasodium salt, purchased from Calbiochem). The best inhibitor candidates were then tested at concentrations ranging from 1 nM to 250 μM to determine the IC50. Assays were initiated upon addition of 100 μM NADPH to 50 nM LiTR or hGR (human glutathione reductase purchased from Sigma-Aldrich) in the presence of different concentration of compounds and 150 μM trypanothione. For both experiments, the oxidation of NADPH was followed as a decrease in absorbance at 340 nm. For each concentration of compound, the initial velocity of the NADPH oxidation was used to determine the percentage of LiTR activity with respect to that in the absence of any compound. The IC50 was determined upon fitting the residual activity of TR as a dose–response logistic equation defined as ymin + (ymax – ymin)/(1 + (x/IC50)^slope). […] The Ki was determined graphically upon linear fitting of data points for each trypanothione concentration. Data analysis was performed with QtiPlot 0.9.8.9 svn 2288, and graphs were made with Matplotlib.
(§2) Figure S3. Inhibition assay of LiTR (red) and hGR (grey) with compounds 5-6, 9-10 and 14.
(§3) Enzymatic assays were carried out at 25°C on a JASCO V650 spectrophotometer equipped with a JASCO EHC716 Peltier unit. Compound concentrations used during the experiments range from 1 […]
(§4) higher than 30 µM and 20 µM, respectively. Briefly, 50 nM LiTR or hGR (Sigma Aldrich) were mixed in 50 mM HEPES pH 7.4, 40 mM NaCl with each compound and 150 µM trypanothione or glutathione. After 3-minute incubation at 25°C, the measurement was initiated upon addition of 100 µM NADPH. The oxidation of NADPH was followed as a decrease in absorbance at 340 nm. Each initial velocity of LiTR enzymatic reaction with the compounds was expressed as a percentage of residual activity with respect to that in the absence of compound. Each data point is the mean of two measurements. The IC50 was determined upon fitting the data as a dose response logistic equation defined by the Kaleidagraph software as ymin+(ymax-ymin)/(1+(x/IC50)^slope).
(§5) (1 picture or pasted object on this page, not shown here)

[2] = target: T2, hGR (human glutathione reductase) (Homo sapiens, UniProt P00390); test: hGR enzymatic inhibition assay (NADPH oxidation at 340 nm); assay type: biochemical; conditions: for IC50: 50 nM hGR, 100 μM NADPH, 25 °C; for SI (ratio of GR IC50/TR IC50): hGR versus LiTR
T2 construct: purchased Sigma-Aldrich
T2 sequence (P00390 44-522): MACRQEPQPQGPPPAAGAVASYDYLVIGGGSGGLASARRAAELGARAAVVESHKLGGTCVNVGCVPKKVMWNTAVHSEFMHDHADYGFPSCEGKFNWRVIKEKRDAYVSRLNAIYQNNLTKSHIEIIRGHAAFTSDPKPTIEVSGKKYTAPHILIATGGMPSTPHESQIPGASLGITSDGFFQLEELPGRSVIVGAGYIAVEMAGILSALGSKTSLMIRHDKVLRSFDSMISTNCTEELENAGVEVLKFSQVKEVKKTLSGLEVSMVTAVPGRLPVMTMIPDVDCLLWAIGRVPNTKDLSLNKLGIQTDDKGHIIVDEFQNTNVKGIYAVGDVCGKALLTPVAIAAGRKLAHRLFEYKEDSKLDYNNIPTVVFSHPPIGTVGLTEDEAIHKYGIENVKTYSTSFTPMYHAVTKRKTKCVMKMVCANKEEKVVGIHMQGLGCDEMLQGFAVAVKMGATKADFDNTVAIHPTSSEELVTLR
Description: as §1, §2, §3, §4, §5

[3] = Cytotoxicity assay on primary murine macrophages (MTT); assay type: cell-based, Balb/c mice; conditions: Balb/c, mouse, primary peritoneal exudate macrophages, read-out: primary murine macrophage CC50 ± SE (95% CI)
Description: To assess the cytotoxicity of compounds on mammalian macrophages, we tested all the compounds against both human leukemia monocyte cell line (THP-1 cells, ATCC) differentiated into macrophages by treatment with 40 ng/mL of phorbol myristate acetate (PMA; Sigma) for 48 h and peritoneal exudate macrophages harvested from Balb/c mice. […] Cell viability was evaluated using the MTT assay, and the concentration of the compound that produced a 50% reduction of cell viability in treated culture cells with respect to untreated ones (CC50) was determined by GraphPad Prism 5.0 (GraphPad Software Inc., San Diego, USA). […] The selectivity index for each compound was calculated as the ratio of cytotoxicity (CC50) in macrophages cells to activity (IC50) against Leishmania axenic amastigotes. The experiments were performed in triplicate, and two independent experiments were conducted.

[4] = test system: L. infantum intramacrophage amastigotes; test: Ex vivo inhibition of intramacrophage amastigote growth; assay type: cell-based, Leishmania infantum; conditions: for EC50: 72 h, murine macrophages infected with L. infantum amastigotes, read-out: intramacrophage amastigote EC50 ± SE (95% CI)
Description: Balb/c murine macrophages were used to perform ex vivo assay since the parasites infect them more effectively. Macrophages (5 × 10^5/well) were placed on glass coverslips within a 24-well culture plate and incubated with complete RPMI in a 5% CO2 incubator at 37 °C for 4 h to achieve cell adhesion. After this time, L. infantum amastigotes from spleens of previously infected hamsters were added onto the macrophages adhering to the coverslips at the ratio of 10:1 (parasites/macrophages). After 24 h of infection, the noninternalized amastigotes were removed by washes with RPMI. The infected macrophages were incubated with complete RPMI medium (control) or medium containing different concentrations of compounds in a 5% CO2 incubator at 37 °C for 72 h. Then, the coverslips were fixed with methanol, stained with Giemsa 10%, and analyzed by optical microscopy. The percentage of the infected macrophages and the number of amastigotes per infected macrophage were determined by random counting of 100 cells in each coverslip. Infection was judged to be adequate if more than 70% of the macrophages in the untreated control were infected. Activity for each compound was expressed as percentage of parasite burden reduction = infectivity index of treated cells/infectivity index of untreated cells. The infectivity index was calculated as follows: number of infected macrophages × mean number of amastigotes per macrophage / total number of macrophages. Nonlinear regression analysis (Graph-Pad Software Inc., San Diego, USA) was used for curve fitting and calculation of 50% inhibitory concentrations (IC50). The experiments were performed in triplicate, and two independent experiments were conducted.

T1 sequence (A4HSF7 1-491): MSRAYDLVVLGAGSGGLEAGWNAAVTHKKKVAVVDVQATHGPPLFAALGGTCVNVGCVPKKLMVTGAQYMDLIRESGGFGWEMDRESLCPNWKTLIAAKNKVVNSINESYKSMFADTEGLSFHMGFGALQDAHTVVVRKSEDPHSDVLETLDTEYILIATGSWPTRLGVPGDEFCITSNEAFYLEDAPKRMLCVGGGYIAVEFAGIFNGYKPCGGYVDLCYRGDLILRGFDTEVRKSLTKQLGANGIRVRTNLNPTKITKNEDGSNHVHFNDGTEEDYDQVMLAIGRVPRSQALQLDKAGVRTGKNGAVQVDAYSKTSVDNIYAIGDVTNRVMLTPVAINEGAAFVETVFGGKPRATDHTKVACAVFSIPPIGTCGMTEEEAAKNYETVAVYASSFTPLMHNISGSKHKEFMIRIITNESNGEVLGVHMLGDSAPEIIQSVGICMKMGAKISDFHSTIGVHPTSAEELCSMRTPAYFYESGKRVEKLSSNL

Row | SMILES | IC50 [1] | gain in LiTR IC50 with respect to 5 [1] | remaining activity at 10 µM [1] | IC50 [2] | SI (ratio of GR IC50/TR IC50) [2] | CC50 at 72 h [3] | EC50 ([4]; Leishmania infantum, Macrophage, in Mus musculus) | EC50 [4] | intramacrophage amastigote reduction ([4]; at 12.5 μM)
1 | C[N+]1(CCCc2ccccc2)CCN(C(=O)N(Cc2ccc(C(=O)NCCc3ccc(F)cc3)o2)c2ccc(F)cc2)CC1.[I-] [Compound 9, 4-(((5-((4-Fluorophenethyl)carbamoyl)furan-2-yl)methyl)(4-fluorophenyl)carbamoyl)-1-methyl-1-(3-phenylpropyl)piperazin-1-ium Iodide] | 20500 ± 2000 nM | about 3 fold | 48.5 ± 7.9% | 62.4 ± 12.4 µM | 3.0 | 29.9 ± 4.2 µM | 15.3 µM | 15.3 ± 2.3 µM | –
2 | O=C(NCCc1ccc(F)cc1)c1ccc(CN(C(=O)N2CC[N+](CCCc3ccccc3)(Cc3ccc(Cl)c(Cl)c3)CC2)c2ccc(F)cc2)o1.[I-] [Compound 10, 1-(3,4-Dichlorobenzyl)-4-(((5-((4-fluorophenethyl)carbamoyl)furan-2-yl)methyl)(4-fluorophenyl)carbamoyl)-1-(3-phenylpropyl)piperazin-1-ium Iodide] | 1310 ± 70 nM | 42 fold | 22 ± 11.6% | 2.3 ± 0.1 µM | 1.7 | 12.5 ± 0.8 µM | – | – | –
3 | O=C(NCCc1ccc(F)cc1)c1ccc(CNC(=O)N2CC[N+](CCCc3ccccc3)(Cc3ccc(Cl)c(Cl)c3)CC2)o1.[I-] [Compound 14, 1-(3,4-Dichlorobenzyl)-4-(((5-((4-fluorophenethyl)carbamoyl)furan-2-yl)methyl)carbamoyl)-1-(3-phenylpropyl)piperazin-1-ium Iodide] | 2350 ± 210 nM | 23 fold | 10.3 ± 2.8% | 3.7 ± 0.3 µM | 1.6 | 12.7 ± 0.9 µM | – | – | 40% of reduction at 12.5 μM
